Patent publication US20260000079A1, “COMPOSITIONS AND METHODS FOR MODULATING IMMUNITY IN PLANTS” (BOYCE THOMPSON INSTITUTE FOR PLANT RESEARCH, INC., priority 2019, published 2026)

Tests used:
Meloidogyne incognita = test: Arabidopsis nematode infection assay (root galls); format: in vivo; conditions: 48 hours root pretreatment
Protocol: FIG. 4A provides a schematic of the experimental designs for assessing activation of defense pathways and resistance to nematodes and bacteria. […] Bacterial growth was assayed 3 days post inoculation. Data are averages±s.d. (n=17). […] Arabidopsis seedlings were treated with buffer or the indicated concentrations of ascr #18 for 48 hours before inoculation with approximately 300 freshly hatched M. incognita J2 larvae. The numbers of root galls of infected plants were counted 6 weeks post inoculation. Data are averages±s.d. (n≥15). […] Arabidopsis seedlings were treated with the indicated concentrations of ascr #18 for 48 hours before transfer into 12-well plates containing Pluronic® F-127 gel with ˜200 freshly hatched M. incognita J2 larvae. Larvae touching root tips (FIG. 4D) or the whole area of roots (FIG. 4E) were counted at 6 hours post seedling transfer. Data are average±s.d. (n=12). […] Transcript levels were determined by qRT-PCR and plotted as relative fold-change compared to mock treated plants. Data are averages±s.d (n≥6). *P≤0.05; **P≤0.005; ***P≤0.0005; two-tailed t-test.
For Arabidopsis nematode infection assays, Meloidogyne incognita was propagated and hatched as described (Manosalva, et al. (2015) Nat. Commun. 6:7795). Briefly, M. incognita were propagated on tomato (Solanum lycopersicum cv. Tiny Tim). M. incognita eggs were then isolated from egg masses on tomato roots with 0.5% sodium hypochlorite and rinsed with water on a 25-μm sieve. Collected nematode eggs were treated in a solution of 0.02% sodium azide for 20 minutes, and then hatched over water containing 1.5 mg/mL gentamycin sulfate and 0.05 mg/mL nystatin at room temperature on a Baermann pan for three days. Hatched second-stage juveniles (J2) were collected, surface sterilized with an aqueous solution of mercuric chloride (0.004%) and sodium azide (0.004%) for 10 minutes, and rinsed three times with sterile distilled water. […] Galls for M. incognita were counted under a microscope six weeks after inoculation. […]

tomato leaves = test: LC-MS analysis of tomato leaves infiltrated with ascr #18; format: in vivo, Solanum lycopersicum; conditions: 4-week old tomato plants infiltrated with 1 μM ascr #18
Description: FIG. 2A provides LC-MS analysis of tomato roots treated with ascr #18 or ^13C2-labeled ascr #18. Plants treated with ^13C2-labeled ascr #18 show peaks at 333.21932 and 249.12542, representing [M-H]^− of ^13C2-ascr #18 and ^13C2-ascr #9, but not at 331.21261 and 247.11871, which correspond to [M-H]^− of ascr #18 and ascr #9, and vice versa. Structures of ascr #18 and ascr #9 indicating the positions of the ^13C2-label are shown above ion chromatograms. Peaks marked with an asterisk represent unrelated peaks. FIGS. 2B and 2C provide graphs showing the relative abundances of ascr #18 and ascr #9, respectively, as measured by LC-MS. Four-week old Arabidopsis leaves were infiltrated with 1 μM ascr #18, and leaf tissue were harvested for LC-MS analyses over a period of 96 hours post infiltration of ascr #18. Data are averages±SEM (n=3). FIG. 2D provides LC-MS analyses of tomato leaves infiltrated with 1 μM ascr #18. Tissues were collected over a 12 hour period. Abundances of ascr #18 and ascr #9 are shown as the peak area, as measured by LC-MS. […] To test whether microbes are required for the observed metabolic transformations, leaves of 4-week old Arabidopsis plants were directly infiltrated with ascr #18 and leaf tissue was subsequently harvested for analysis by LC-MS as above. […]

Q: For `CC1O[C@@H](O[C@@H](C)CCCCCCCCC(=O)O)C(O)C[C@H]1O` (stereo in doubt) [ascr #18, (10R)-(3′R,5′R-dihydroxy-6′S-methyl-(2H)-tetrahydropyran-2-yloxy)-undecanoic acid], which “protection against M. incognita (root galls 6 weeks post inoculation)” value (shortened to “protection against M. incognita”) (Meloidogyne incognita; acx1acx5 mutant) is on record?
A: no effect

Q: And the “protection against M. incognita” value (Meloidogyne incognita; wildtype, 10 nM)?
A: significant protection

Q: And the “protection against M. incognita” value (Meloidogyne incognita; wildtype, 50 nM)?
A: significant protection

Q: For `C[C@H](CCC(=O)O)O[C@@H]1O[C@@H](C)[C@H](O)C[C@H]1O` [ascr #9], which “formation of ascr #9 in leaves” value (tomato leaves) is on record?
A: observed
